Test results as given in patent publication US12128035B2, “Activating pyruvate kinase R” (Novo Nordisk Health Care AG, priority 2021, dated 2024).
Where “and” joins values, the source holds several entries; their conditions need not be identical. Equal values may be shown once.

How the values were obtained:
[1] = system: p50 (PO2 at 50% hemoglobin saturation); assay: Phase 1 SAD/MAD: p50 (Hemox Analyzer) in healthy volunteers; format: in vivo, human; details: for Mean p50 Value: 24 hours after first dose on day 14; for Mean Absolute Change in p50 / Mean Percentage Change in p50: 24 hours after first dose on day 14, relative to baseline; for median reduction in p50: all dose levels; for Mean Absolute Change in p50 (mmHg): 24 hours after dose, relative to baseline
Procedure: In the SAD cohorts, the subjects' p50 (PO2 at 50% hemoglobin saturation) were determined 24-hours post-dose. p50 measured 24 hours after a single dose of Compound 1 were reduced at all dose levels tested (median reduction ranged from ˜3-5 mmHg). Table 17 reports the mean absolute change in p50, relative to baseline, measured 24 hours after a single dose of Compound 1 (200 mg, 400 mg, 700 mg, or 1000 mg) or placebo in healthy volunteers.
In the MAD cohorts, the subjects' p50 (PO2 at 50% hemoglobin saturation) were determined on day 14. p50 values measured after 14 days of twice daily dosing were reduced at all dose levels tested (median reduction ranged from ˜3-5 mmHg). Table 19 reports the mean p50 value and the mean absolute change and percentage change in p50, relative to baseline, measured 24 hours after the first dose given on day 14 in healthy volunteers who received daily doses of Compound 1 (100 mg BID, 200 mg BID, 300 mg BID, or 400 mg QD) or placebo for 14 days.
The oxygen affinity of RBCs was measured in patient blood using a Hemox Analyzer (TCS Scientific Corp.), an automatic system for the recording of blood oxygen equilibrium curves and related phenomena. The Hemox Analyzer was used according to standard methods to determine the hemoglobin-oxygen dissociation curves for whole blood samples, numerically characterized by the p50, the partial pressure of oxygen at which hemoglobin is 50% saturated. The operating principle of the Hemox-Analyzer is based on dual-wavelength spectrophotometry for the measurement of the optical properties of hemoglobin and a Clark electrode for measuring the oxygen partial pressure in millimeters of mercury. Whole blood is diluted and placed into a special plastic cuvette that is maintained at 37° C. To perform the analysis, a beam of polychromatic light is passed through the cuvette and is made monochromatic prior to reaching the photomultiplier detectors. In the case of hemoglobin, the wavelength of maximum absorbance is the measuring wavelength (560 nm), while the reference wavelength is at the isosbestic point at (570 nm). The absorbance at the isosbestic point remains unchanged during the deoxygenation process of the hemoglobin, however the measuring wavelength (560 nm) undergoes a drastic change in absorbance. This change is detected by the electronic circuitry and is plotted as the log/ratio change between the two wavelengths. The log/ratio measurement at 560 nm and 570 nm is utilized to measure the optical absorbance change during the deoxygenation of the hemoglobin. Simultaneously with the measurement of the hemoglobin absorbance, the oxygen concentration is directly measured in the sample using a Clark electrode. Under normal atmospheric conditions of 760 mm of mercury the oxygen concentration (i.e., the oxygen partial pressure) is 149 mm of mercury. This saturation point is used for full-scale calibration of the computer prior to starting the plotting of the curve. When the oxygen is being replaced by an inert gas (nitrogen) in a continuous procedure, hemoglobin becomes deoxygenated.

[2] = system: H295R adreno-cortical carcinoma cell line; assay: Cell viability (MTT Kit); format: cell-based
Procedure: To assess potential effects on steroidogenesis, Compound 1 was screened for steroid modulation in vitro using the H295R adreno-cortical carcinoma cell line (at 200 to 0.0002 μM) and in an assay to monitor cell viability (MTT Kit). Compound 1 indicated steroid modulation potential (% over vehicle) only at 200 μM, the top concentration tested, with 100% cellular viability at concentrations ≤20 μM (90% viability at 200 μM).

[3] = target: T1, PKR in mouse red blood cells (Mus musculus, UniProt P53657); assay: Cell assay: PKR activation in mouse RBCs; format: cell-based
T1 construct: endogenous in cells; host or cells: mouse RBCs freshly isolated from whole blood
T1 sequence (P53657 whole entry): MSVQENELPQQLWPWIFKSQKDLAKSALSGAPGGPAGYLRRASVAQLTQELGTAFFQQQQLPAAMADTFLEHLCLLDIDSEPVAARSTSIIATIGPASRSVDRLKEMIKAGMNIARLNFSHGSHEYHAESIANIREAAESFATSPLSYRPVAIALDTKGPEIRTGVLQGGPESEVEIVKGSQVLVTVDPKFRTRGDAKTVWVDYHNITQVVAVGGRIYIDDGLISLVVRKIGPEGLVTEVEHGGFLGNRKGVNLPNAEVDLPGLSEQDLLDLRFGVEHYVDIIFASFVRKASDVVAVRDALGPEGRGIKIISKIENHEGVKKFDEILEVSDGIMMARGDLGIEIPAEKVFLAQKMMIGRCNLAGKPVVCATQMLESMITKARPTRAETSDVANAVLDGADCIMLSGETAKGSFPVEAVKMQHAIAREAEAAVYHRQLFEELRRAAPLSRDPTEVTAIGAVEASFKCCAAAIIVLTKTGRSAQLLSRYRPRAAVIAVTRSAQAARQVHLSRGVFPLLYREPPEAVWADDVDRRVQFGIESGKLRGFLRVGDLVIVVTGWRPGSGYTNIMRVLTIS
Source text: Mouse RBCs were isolated fresh from whole blood using a Ficoll gradient and assayed with methods similar to those used in the human RBCs assays.

[4] = system: Red blood cells from SCD patients; assay: Ex vivo Hgb oxygen equilibrium curves in SCD RBCs; format: cell-based, human; details: 10 μM
Procedure: Red blood cells from SCD patients were used to evaluate the effects of Compound 1 on Hgb affinity for oxygen (i.e., oxygen affinity) and sickling under hypoxic conditions. Cells were incubated at 37° C. for 1, 2, and 3 hr with HEPES buffered saline (HBS) (untreated), HBS+dimethyl sulfoxide (DMSO) (vehicle), or 10 μM Compound 1. To assess oxygen dissociation, Hgb oxygen equilibrium curves were collected during deoxygenation.

[5] = Phase 1: hematologic and hemolytic laboratory parameters in SCD patients; format: in vivo, human
Source text: Laboratory changes relative to pretreatment for each pt in the MD cohort as of Jul. In 2 of 3 SCD MD-1 pts treated with Compound 1/placebo (currently blinded), Hb increased by >1 g/dL, % reticulocytes decreased, and markers of hemolysis were improved after 14 days of treatment (compared to pre-treatment levels). Hematologic parameters returned to pre-treatment levels 4 to 7 days post-treatment (data not shown) without clinical AEs.
A median 1.2 g/dL Hb increase (range 0, 2.3) and a median 60% reticulocyte decrease (range −39%, −81%) over baseline were observed. The onset of the increase in Hb was rapid and continued to increase in most patients through the end of treatment, indicating the potential for additional improvement with extended dosing. […] A median 36% LDH decrease (range +18%, −57%) and a median 35% bilirubin decrease (range −7%, −63%) over baseline were observed, which is consistent with the hypothesis that Compound 1 improves RBC survival and reduces RBC turnover.

[6] = SCD MAD1, 300 mg once daily 14 days, of 7 patients

O=C([C@H](CO)c1ccccc1)N1CC2=C(C1)CN(S(=O)(=O)c1cnc3c(c1)OCCO3)C2 (single isomer, unassigned) [Compound 1]
Mean p50 Value ([1]; HV 100 mg BID): 22.96 mmHg
Mean Absolute Change in p50 ([1]; HV 100 mg BID): −3.26 mmHg
Mean Percentage Change in p50 ([1]; HV 100 mg BID): −12.42%
Mean p50 Value ([1]; HV 200 mg BID): 22.33 mmHg
Mean Absolute Change in p50 ([1]; HV 200 mg BID): −5.34 mmHg
Mean Percentage Change in p50 ([1]; HV 200 mg BID): −19.33%
Mean p50 Value ([1]; HV 300 mg BID): 21.69 mmHg
Mean Absolute Change in p50 ([1]; HV 300 mg BID): −4.24 mmHg
Mean Percentage Change in p50 ([1]; HV 300 mg BID): −16.05%
Mean p50 Value ([1]; HV 400 mg QD): 21.75 mmHg
Mean Absolute Change in p50 ([1]; HV 400 mg QD): −4.09 mmHg
Mean Percentage Change in p50 ([1]; HV 400 mg QD): −15.76%
median reduction in p50 ([1]; HV MAD cohorts, after 14 days of dosing): 3-5 mmHg
Mean Maximum Percent Change from Baseline, p50 ([1]; HV MAD, all doses and timepoints (N = 36)): −15.9%
median reduction in p50 ([1]; HV SAD, 24 hours after a single dose): 3-5 mmHg
Mean Maximum Percent Change from Baseline, p50 ([1]; HV SAD, all doses and timepoints (N = 24)): −15.6%
Mean Absolute Change in p50 (mmHg) ([1]; HV single 200 mg): −2.91 mmHg
Mean Absolute Change in p50 (mmHg) ([1]; HV single 400 mg): −3.41 mmHg
Mean Absolute Change in p50 (mmHg) ([1]; HV single 700 mg): −4.85 mmHg
Mean Absolute Change in p50 (mmHg) ([1]; HV single 1000 mg): −5.05 mmHg
cellular viability ([2]; 200 μM): 90%
cellular viability ([2]; concentrations ≤20 μM): 100%
Max − Min (%), Mean ([3]; mean of replicates): <100%
Max − Min (%) ([3]; single replicates): <50% and <100%
Hgb saturation higher compared to DMSO-treated cells ([4]; 2 hr): approximately 10%
p50 ([4]; after 1 hr, shifted from 29 mmHg): 25 mmHg
Hemoglobin Saturation ([4]; incubation 1 hr, normalized to 1.00 (DMSO 1.18)): 1.05
Hemoglobin Saturation ([4]; incubation 2 hr, normalized to 1.00 (DMSO 1.18)): 1.00
Hemoglobin Saturation ([4]; incubation 3 hr, normalized to 1.00 (DMSO 1.30)): 1.02
patients with >1 g/dL increase in hemoglobin ([5]; SCD MAD1, 300 mg once daily 14 days): 6/7
median Hb increase over baseline ([5]; SCD MAD1, 300 mg once daily 14 days (n = 7), range 0, 2.3): 1.2 g/dL
patients with a decrease in reticulocytes [5, 6]: 7 and 7/7
patients with a decrease in total bilirubin [5, 6]: 7
median LDH decrease over baseline ([5]; SCD MAD1, 300 mg once daily 14 days, range +18%, −57%): 36%
median bilirubin decrease over baseline ([5]; SCD MAD1, 300 mg once daily 14 days, range −7%, −63%): 35%
median reticulocyte decrease over baseline ([5]; SCD MAD1, 300 mg once daily 14 days, range −39%, −81%): 60%
increase in Hb compared with pre-dose on day 1 ([5]; one SCD patient, 300 mg once daily, sustained through day 21, no hydroxyurea): > 2 g/dL
